Test results from PubChem BioAssay (NCI).
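48-hour exposure; five concentrations; linearly interpolated endpoints. GI50 marks 50% less growth. At the TGI there is no net growth.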

How the values were obtained:
Experiment in all cases: growth of human tumour cells (NCI), 48 h
MOLT-4 leukemia = system: MOLT-4 leukemia
SK-OV-3 ovarian = system: SK-OV-3 ovarian
SR leukemia = system: SR leukemia
HOP-92 NSCLC = system: HOP-92 NSCLC
MCF7 breast = system: MCF7 breast
HOP-62 NSCLC = system: HOP-62 NSCLC
HT29 colon = system: HT29 colon
CAKI-1 renal = system: CAKI-1 renal
IGROV1 ovarian = system: IGROV1 ovarian
OVCAR-5 ovarian = system: OVCAR-5 ovarian
LOX IMVI melanoma = system: LOX IMVI melanoma
NCI-H23 lung = system: NCI-H23 lung
SW-620 colon = system: SW-620 colon
SF-268 CNS = system: SF-268 CNS
K-562 leukemia = system: K-562 leukemia
OVCAR-3 ovarian = system: OVCAR-3 ovarian
DU-145 prostate = system: DU-145 prostate
NCI-H226 lung = system: NCI-H226 lung
OVCAR-8 ovarian = system: OVCAR-8 ovarian
SK-MEL-5 melanoma = system: SK-MEL-5 melanoma
RXF 393 renal = system: RXF 393 renal
HL-60(TB) leukemia = system: HL-60(TB) leukemia
UO-31 renal = system: UO-31 renal
PC-3 prostate = system: PC-3 prostate
ACHN renal = system: ACHN renal
SNB-75 CNS = system: SNB-75 CNS
UACC-257 melanoma = system: UACC-257 melanoma
SF-295 CNS = system: SF-295 CNS
SN12C renal = system: SN12C renal

COc1cc[nH]c1/C=C1\C(=O)Nc2ccc(F)c(I)c21
GI50 (MOLT-4 leukemia): > 25 µM
TGI (MOLT-4 leukemia): > 25 µM
GI50 (SK-OV-3 ovarian): > 25 µM
TGI (SK-OV-3 ovarian): > 25 µM
GI50 (SR leukemia): > 25 µM
TGI (SR leukemia): > 25 µM
GI50 (HOP-92 NSCLC): > 25 µM
TGI (HOP-92 NSCLC): > 25 µM
GI50 (MCF7 breast): > 25 µM
TGI (MCF7 breast): > 25 µM
GI50 (HOP-62 NSCLC): > 25 µM
TGI (HOP-62 NSCLC): > 25 µM
GI50 (HT29 colon): > 25 µM
TGI (HT29 colon): > 25 µM
GI50 (CAKI-1 renal): 0.557 µM
TGI (CAKI-1 renal): > 25 µM
GI50 (IGROV1 ovarian): > 25 µM
TGI (IGROV1 ovarian): > 25 µM
GI50 (OVCAR-5 ovarian): > 25 µM
TGI (OVCAR-5 ovarian): > 25 µM
GI50 (LOX IMVI melanoma): > 25 µM
TGI (LOX IMVI melanoma): > 25 µM
GI50 (NCI-H23 lung): > 25 µM
TGI (NCI-H23 lung): > 25 µM
GI50 (SW-620 colon): > 25 µM
TGI (SW-620 colon): > 25 µM
GI50 (SF-268 CNS): > 25 µM
TGI (SF-268 CNS): > 25 µM
GI50 (K-562 leukemia): > 25 µM
TGI (K-562 leukemia): > 25 µM
GI50 (OVCAR-3 ovarian): > 25 µM
TGI (OVCAR-3 ovarian): > 25 µM
GI50 (DU-145 prostate): > 25 µM
TGI (DU-145 prostate): > 25 µM
GI50 (NCI-H226 lung): > 25 µM
TGI (NCI-H226 lung): > 25 µM
GI50 (OVCAR-8 ovarian): > 25 µM
TGI (OVCAR-8 ovarian): > 25 µM
GI50 (SK-MEL-5 melanoma): > 25 µM
TGI (SK-MEL-5 melanoma): > 25 µM
GI50 (RXF 393 renal): > 25 µM
TGI (RXF 393 renal): > 25 µM
GI50 (HL-60(TB) leukemia): > 25 µM
TGI (HL-60(TB) leukemia): > 25 µM
GI50 (UO-31 renal): > 25 µM
TGI (UO-31 renal): > 25 µM
GI50 (PC-3 prostate): > 25 µM
TGI (PC-3 prostate): > 25 µM
GI50 (ACHN renal): > 25 µM
TGI (ACHN renal): > 25 µM
GI50 (SNB-75 CNS): > 25 µM
TGI (SNB-75 CNS): > 25 µM
GI50 (UACC-257 melanoma): > 25 µM
TGI (UACC-257 melanoma): > 25 µM
GI50 (SF-295 CNS): > 25 µM
TGI (SF-295 CNS): > 25 µM
GI50 (SN12C renal): > 25 µM
